Among the data in patent publication US20170253607A1, “LONG-ACTING HIV PROTEASE INHIBITOR” (Shionogi & Co., Ltd., priority 2014, published 2017) are IC50 values, retold here.

In this experiment the target is HIV-1 PR (Human immunodeficiency virus type 1 group M subtype B, UniProt P04585). Put plainly: HIV-protease inhibitory activity assay (FRET peptide substrate). The format is biochemical. The note with it: Test Example 1. The procedure, abridged: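 Fluorescence recovery at ex 485/em 535 nm reports cleavage of a quenched FRET peptide (2 μmol/L final) by 0.83 ng enzyme over 60 minutes at room temperature. Buffer was NaAc pH 4.8 with NaCl, EDTA, DTT and Tween 20. IC50 values came from four-parameter logistic regression of % inhibition.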
`COc1ccc(S(=O)(=O)N(CC(C)C)CC(O)C(Cc2ccc(NC3CCc4c(-c5sc6c(c5C(=O)O)CC(C)(C)CC6)cccc43)cc2)NC(=O)OC2COC3(C)OCCC23)cc1` (stereo not shown) [Compound I-697]: 2.9 nM corresponded to half-maximal inhibition (IC50). That is a single-digit nanomolar value.
Consider `COc1ccc(S(=O)(=O)N(CC(C)C)CC(O)C(Cc2ccc(N(C)Cc3cc(OC(F)(F)F)ccc3-c3sc4c(c3C(=O)O)CC(C)(C)CC4)cc2)NC(=O)OC2COC3(C)OCCC23)cc1` (stereo not shown) [Compound I-699], for which half-maximal inhibition (IC50) was put at 10.3 nM.
Under `COc1ccc(S(=O)(=O)N(CC(C)C)CC(O)C(Cc2ccc(N(C)Cc3cc(N4CCOCC4)ccc3-c3sc4c(c3C(=O)O)CC(C)(C)CC4)cc2)NC(=O)OC2COC3(C)OCCC23)cc1` (stereo not shown) [Compound I-700] stands 2.02 nM; under `COc1ccc(S(=O)(=O)N(CC(C)C)CC(O)C(Cc2ccc(N(C)Cc3cnc4sccc4c3-c3sc4c(c3C(=O)O)CC(C)(C)CC4)cc2)NC(=O)OC2COC3(C)OCCC23)cc1` (stereo not shown) [Compound I-702], 2.15 nM; under `COc1ccc(S(=O)(=O)N(CC(C)C)CC(O)C(Cc2ccc(N(C)Cc3cc(-c4sc5c(c4C(=O)O)CC(C)(C)CC5)cc4ccccc34)cc2)NC(=O)OC2COC3(C)OCCC23)cc1` (stereo not shown) [Compound I-703], 4.6 nM.
Under `COc1ccc(S(=O)(=O)N(CC(C)C)CC(O)C(Cc2ccc(NCC3=C(c4sc5c(c4C(=O)O)CC(C)(C)CC5)CCC(F)(F)C3)cc2)NC(=O)OC2COC3(C)OCCC23)cc1` (stereo not shown) [Compound I-705] stands 4.87 nM; under `COc1ccc(S(=O)(=O)N(CC(C)C)CC(O)C(Cc2ccc(N(C)CC3=C(c4sc5c(c4C(=O)O)CC(C)(C)CC5)CCC(F)(F)C3)cc2)NC(=O)OC2COC3(C)OCCC23)cc1` (stereo not shown) [Compound I-706], 6.62 nM; under `COc1ccc(S(=O)(=O)N(CC(C)C)CC(O)C(Cc2ccc(N(C)Cc3cc(N4CCC4)ccc3-c3sc4c(c3C(=O)O)CC(C)(C)CC4)cc2)NC(=O)OC2COC3(C)OCCC23)cc1` (stereo not shown) [Compound I-708], 1.65 nM.
In turn, `COc1ccc(S(=O)(=O)N(CC(C)C)CC(O)C(Cc2ccc(N(C)C3CCc4c(-c5sc6c(c5C(=O)O)CC(C)(C)CC6)cccc43)cc2)NC(=O)OC2COC3(C)OCCC23)cc1` (stereo not shown) [Compound I-709] registered an IC50 of 7.2 nM.
Under `COc1ccc(S(=O)(=O)N(CC(C)C)CC(O)C(Cc2ccc(N(C)C3CCc4c(-c5sc6c(c5C(=O)O)CC(C)(C)CC6)cccc43)cc2)NC(=O)OC2COC3(C)OCCC23)cc1` (stereo not shown) [Compound I-710] stands 4.26 nM; under `COc1ccc(S(=O)(=O)N(CC(C)C)CC(O)C(Cc2ccc(NC3CCCc4c(-c5sc6c(c5C(=O)O)CC(C)(C)CC6)cccc43)cc2)NC(=O)OC2COC3(C)OCCC23)cc1` (stereo not shown) [Compound I-711], 8.1 nM; under `COc1ccc(S(=O)(=O)N(CC(C)C)CC(O)C(Cc2ccc(NCc3ccccc3-c3cnc(-c4sc5c(c4C(=O)O)CC(C)(C)CC5)nc3)cc2)NC(=O)OC2COC3(C)OCCC23)cc1` (stereo not shown) [Compound I-712], 2.02 nM.
Under `COc1ccc(S(=O)(=O)N(CC(C)C)CC(O)C(Cc2ccc(NCc3ccccc3-c3ccc(-c4sc5c(c4C(=O)O)CC(C)(C)CC5)nc3)cc2)NC(=O)OC2COC3(C)OCCC23)cc1` (stereo not shown) [Compound I-713] stands 1.69 nM; under `COc1ccc(S(=O)(=O)N(CC(C)C)CC(O)C(Cc2ccc(N(C)Cc3nc(N4CCCC4)sc3-c3ccc(-c4sc5c(c4C(=O)O)CC(C)(C)CC5)cc3)cc2)NC(=O)OC2COC3(C)OCCC23)cc1` (stereo not shown) [Compound I-715], 5.31 nM; under `COc1ccc(S(=O)(=O)N(CC(C)C)CC(O)C(Cc2ccc(NCc3ccc(C)cc3C(=O)Nc3sc4c(c3C(=O)O)CC(C)(C)CC4)cc2)NC(=O)OC2COC3(C)OCCC23)cc1` (stereo not shown) [Compound I-716], 3.95 nM.
For `COc1ccc(S(=O)(=O)N(CC(C)C)CC(O)C(Cc2ccc(NCc3cc(C)ccc3C(=O)Nc3sc4c(c3C(=O)O)CC(C)(C)CC4)cc2)NC(=O)OC2COC3(C)OCCC23)cc1` (stereo not shown) [Compound I-717], the IC50 amounted to 2.77 nM.
In the case of `COc1ccc(S(=O)(=O)N(CC(C)C)CC(O)C(Cc2ccc(NCc3cccc(C)c3C(=O)Nc3sc4c(c3C(=O)O)CC(C)(C)CC4)cc2)NC(=O)OC2COC3(C)OCCC23)cc1` (stereo not shown) [Compound I-718] it was 3.97 nM; in that of `COc1ccc(S(=O)(=O)N(CC(C)C)CC(O)C(Cc2ccc(NCc3cc(-c4ccc(-c5ccccc5)cc4)ccc3-c3sc4c(c3C(=O)O)CC(C)(C)CC4)cc2)NC(=O)OC2COC3(C)OCCC23)cc1` (stereo not shown) [Compound I-721], 2.24 nM; in that of `CC=Cc1ccc(-c2sc3c(c2C(=O)O)CC(C)(C)CC3)c(CNc2ccc(CC(NC(=O)OC3COC4(C)OCCC34)C(O)CN(CC(C)C)S(=O)(=O)c3ccc(OC)cc3)cc2)c1` (stereo not shown) [Compound I-723], 1.65 nM.
As for `COc1ccc(S(=O)(=O)N(CC(C)C)CC(O)C(Cc2ccc(NCc3cc(-c4ccc5c(c4)[nH]c4ccccc45)ccc3-c3sc4c(c3C(=O)O)CC(C)(C)CC4)cc2)NC(=O)OC2COC3(C)OCCC23)cc1` (stereo not shown) [Compound I-724], the IC50 worked out at 1.83 nM.
Under `COc1ccc(S(=O)(=O)N(CC(C)C)CC(O)C(Cc2ccc(NCc3cc(N4CC(C)(C)C4=O)ccc3-c3sc4c(c3C(=O)O)CC(C)(C)CC4)cc2)NC(=O)OC2COC3(C)OCCC23)cc1` (stereo not shown) [Compound I-728] stands 2.96 nM; under `COc1ccc(S(=O)(=O)N(CC(C)C)CC(O)C(Cc2ccc(NCc3cc(N4CCCCC4=O)ccc3-c3sc4c(c3C(=O)O)CC(C)(C)CC4)cc2)NC(=O)OC2COC3(C)OCCC23)cc1` (stereo not shown) [Compound I-729], 1.64 nM.
Under `COc1ccc(S(=O)(=O)N(CC(C)C)CC(O)C(Cc2ccc(N(C)Cc3cc(N4CC(C)(C)C4=O)ccc3-c3sc4c(c3C(=O)O)CC(C)(C)CC4)cc2)NC(=O)OC2COC3(C)OCCC23)cc1` (stereo not shown) [Compound I-730] stands 2.84 nM; under `COc1ccc(S(=O)(=O)N(CC(C)C)CC(O)C(Cc2ccc(N(C)Cc3cc(N4CCCCC4=O)ccc3-c3sc4c(c3C(=O)O)CC(C)(C)CC4)cc2)NC(=O)OC2COC3(C)OCCC23)cc1` (stereo not shown) [Compound I-731], 1.96 nM; under `COc1ccc(S(=O)(=O)N(CC(C)C)CC(O)C(Cc2ccc(NCc3cc(OC)ccc3C(=O)Nc3sc4c(c3C(=O)O)CC(C)(C)CC4)cc2)NC(=O)OC2COC3(C)OCCC23)cc1` (stereo not shown) [Compound I-732], 3.26 nM.
Under `COc1ccc(S(=O)(=O)N(CC(C)C)CC(O)C(Cc2ccc(N(C)Cc3cc(C(F)(F)F)ccc3C(=O)Nc3sc4c(c3C(=O)O)CC(C)(C)CC4)cc2)NC(=O)OC2COC3(C)OCCC23)cc1` (stereo not shown) [Compound I-734] stands 15.4 nM; under `COc1ccc(S(=O)(=O)N(CC(C)C)CC(O)C(Cc2ccc(NCC3CC(C)(C)CC3c3sc4c(c3C(=O)O)CC(C)(C)CC4)cc2)NC(=O)OC2COC3(C)OCCC23)cc1` (stereo not shown) [Compound I-735], 1.56 nM; under `COc1ccc(S(=O)(=O)N(CC(C)C)CC(O)C(Cc2ccc(NCc3nc(N4CCCCC4)sc3-c3sc4c(c3C(=O)O)CC(C)(C)CC4)cc2)NC(=O)OC2COC3(C)OCCC23)cc1` (stereo not shown) [Compound I-737], 1.99 nM.
Compound `COc1ccc(S(=O)(=O)N(CC(C)C)CC(O)C(Cc2ccc(NCc3nc(N4CCOCC4)sc3-c3sc4c(c3C(=O)O)CC(C)(C)CC4)cc2)NC(=O)OC2COC3(C)OCCC23)cc1` (stereo not shown) [Compound I-738] registered an IC50 of 1.8 nM.
Compound `COc1ccc(S(=O)(=O)N(CC(C)C)CC(O)C(Cc2ccc(NCc3ccc(N4CC(C)(C)C4=O)cc3-c3sc4c(c3C(=O)O)CC(C)(C)CC4)cc2)NC(=O)OC2COC3(C)OCCC23)cc1` (stereo not shown) [Compound I-740] returned an IC50 of 1.6 nM.
In the case of `COc1ccc(S(=O)(=O)N(CC(C)C)CC(O)C(Cc2ccc(N(C)Cc3ccc(N4CCCCC4=O)cc3-c3sc4c(c3C(=O)O)CC(C)(C)CC4)cc2)NC(=O)OC2COC3(C)OCCC23)cc1` (stereo not shown) [Compound I-743] it was 2.32 nM.
Under `COc1ccc(S(=O)(=O)N(CC(C)C)CC(O)C(Cc2ccc(N(C)Cc3ccc(N4CCCC4=O)cc3-c3sc4c(c3C(=O)O)CC(C)(C)CC4)cc2)NC(=O)OC2COC3(C)OCCC23)cc1` (stereo not shown) [Compound I-744] stands 2.14 nM.
Under `COc1ccc(S(=O)(=O)N(CC(C)C)CC(O)C(Cc2ccc(N(C)Cc3ccc(C)cc3C(=O)Nc3sc4c(c3C(=O)O)CC(C)(C)CC4)cc2)NC(=O)OC2COC3(C)OCCC23)cc1` (stereo not shown) [Compound I-745] stands 3.39 nM; under `COc1ccc(S(=O)(=O)N(CC(C)C)CC(O)C(Cc2ccc(N(C)Cc3cc(C)ccc3C(=O)Nc3sc4c(c3C(=O)O)CC(C)(C)CC4)cc2)NC(=O)OC2COC3(C)OCCC23)cc1` (stereo not shown) [Compound I-746], 2.81 nM; under `COc1ccc(S(=O)(=O)N(CC(C)C)CC(O)C(Cc2ccc(N(C)Cc3cccc(C)c3C(=O)Nc3sc4c(c3C(=O)O)CC(C)(C)CC4)cc2)NC(=O)OC2COC3(C)OCCC23)cc1` (stereo not shown) [Compound I-747], 4.35 nM.
In turn, `COc1ccc(S(=O)(=O)N(CC(C)C)CC(O)C(Cc2ccc(NCc3c(F)cccc3C(=O)Nc3sc4c(c3C(=O)O)CC(C)(C)CC4)cc2)NC(=O)OC2COC3(C)OCCC23)cc1` (stereo not shown) [Compound I-748] had an IC50 of 2.39 nM.
In the case of `COc1ccc(S(=O)(=O)N(CC(C)C)CC(O)C(Cc2ccc(NCc3cccc(F)c3C(=O)Nc3sc4c(c3C(=O)O)CC(C)(C)CC4)cc2)NC(=O)OC2COC3(C)OCCC23)cc1` (stereo not shown) [Compound I-749] it was 2.33 nM.
In the case of `COc1ccc(S(=O)(=O)N(CC(C)C)CC(O)C(Cc2ccc(N(C)Cc3ccc(N4CC(C)(C)C4=O)cc3-c3sc4c(c3C(=O)O)CC(C)(C)CC4)cc2)NC(=O)OC2COC3(C)OCCC23)cc1` (stereo not shown) [Compound I-750] it was 4.6 nM; in that of `COc1ccc(S(=O)(=O)N(CC(C)C)CC(O)C(Cc2ccc(NC3CCCc4c(-c5sc6c(c5C(=O)O)CC(C)(C)CC6)cccc43)cc2)NC(=O)OC2COC3(C)OCCC23)cc1` (stereo not shown) [Compound I-751], 15.7 nM; in that of `COc1ccc(S(=O)(=O)N(CC(C)C)CC(O)C(Cc2ccc(NC3CCCc4c(-c5sc6c(c5C(=O)O)CC(C)(C)CC6)cccc43)cc2)NC(=O)OC2COC3(C)OCCC23)cc1` (stereo not shown) [Compound I-752], 13.3 nM.

As usually defined, the IC50 is the concentration that inhibits the measured activity by half. Read a high IC50 as lower potency.
